Patent US6737423B2, “Substituted heterocyclo-norbornylamino derivatives, processes for their preparation, their use as medicaments or diagnostics, and medicaments comprising them” (Aventis Pharma Deutschland GmbH, priority 2000, dated 2004)
Counter-ions that a name gives are not always drawn.

What was measured:
Caco-2 cell line = assay: Caco 2 model (transport through Caco-2 monolayers, absorbed fraction); type: in vitro ADME; details: apical to basolateral, pH 7.8, 37° C., test concentration 1 mM / 100 μM, from Papp via sigmoidal calibration curve
Method: The Caco-2 cell line was acquired from the American Type Culture Collection (ATCC) and maintained in Dulbecco's Modified Eagle medium (high glucose content), supplemented with nonessential amino acids, L-glutamine, penicillin/streptomycin, and 10% strength fetal calf serum. The Caco-2 cell line was then kept in an incubator under a 10% strength CO2 atmosphere at 95% strength relative humidity and 37° C. The cells were grown in cell culture flasks (175 cm^2). For the transport investigations, the Caco-2 cells were inoculated into polycarbonate cell culture inserts (costar Transwells®, pore size: 3 μm, area: 4.71 cm^2) at a cell density of 6.5×10^4 cells/cm^2 and incubated in six-well culture plates with a change of medium after 4 and 8 days and then every second day thereafter. 21 to 25 day-old monolayers were used for the experiments.
In each test series, a 21 day-old monolayer was tested for its properties with ^3H-dextran as a permeability marker. The value of the transfer rate (cumulative) had to be in the range of 2% after 120 min.
After eliminating the growth medium from the apical and the basolateral side, the monolayers were rinsed with the transport buffer (Hank's balanced salt solution, pH 7.8; containing 2.8 g/l glucose).The cells were then equilibrated for 15 min at 37° C. under a 10% strength C02 atmosphere. The HBSS buffer was then removed. The test compounds were dissolved in a mixture of HBSS buffer and DMSO and added to the apical buffer such that a 1% strength (v/v) DMSO solution resulted. The test concentration in the first experiment was 1 mM, and 100 μM in the second. The experiments were carried out at 37° C. and started by the addition of 1.5 ml of test solution to the donor side (apical). Transport buffer without compound was added to the recipient side (basolateral, 2.5 ml). At various points in time, samples were taken from the basolateral side (1 ml) and replaced by fresh buffer solution at 37° C. […]
The compounds were analyzed by means of HPLC.
The apparent permeability coefficient (Papp) was calculated by means of the following equation: [formula]
wherein dc/dt is the flow through the monolayer (μg of compound/ml x s), V is the liquid volume in the collection chamber (ml), A is the surface area size of the monolayer (cm^2) and c0 is the initial concentration (μg of compound/ml) in the donor chamber. The flow through the monolayer was calculated from the cumulative basolateral concentration at the appropriate point in time with the aid of the initially linear data curve (linear up to 60 min). The respective determinations were made in triplicate, such that the calculated Papp value represents the mean of three measurements. […]

Rat NHE3 = biological target: T1, Rat NHE3 (Rattus norvegicus, UniProt P26433); assay: NHE activity measurement (pHi recovery after acid load, transfected LAP1 cells); type: cell-based; details: stably transfected LAP1 cells, pH recovery recorded for 3 minutes, BCECF
T1 construct: expressed in transfected cells; host or cells: LAP1 (NHE-deficient cell line), stably transfected with pMAMneo plasmid
Description: In the context of our studies, stably transfected cell lines were produced that in each case expressed one of the following NHE subtypes: Human NHE1 (Sardet et al. Cell 56:271-280 (1989)), rabbit NHE2 (Tse et al.; J. Biol. Chem. 268:11917-11924 (1993)), human NHE3 (Brant et al. Am. J. Physiol. 269 (Cell Physiol. 38) C198-C206 (1995)), or rat NHE3 (Orlowski et al.; J. Biol. Chem. 267:9331-9339 (1992)).
The cDNA clones of the respective NHE subtypes obtained by Prof. Pouyssegur were, after addition of suitable linker sequences, cloned into the expression plasmid pMAMneo (obtainable, for example, via CLONTECH, Heidelberg) such that the recognition sequence for the restriction endonuclease Nhel of the plasmid was approximately 20-100 Basepairs before the start codon of the respective NHE subtype and that the total coding sequence was present in the construct. In the case of the human NHE3 obtained from human kidney mRNA by means of RT-PCR, the RT-PCR primers were selected such that the cDNA band obtained had cleavage sites suitable for pMAMneo at its ends.
Using the “calcium phosphate method” (described in chapter 9.1 of “Current Protocols in Molecular Biology”), the NHE-deficient cell line LAP1 (Franchi et al.; Proc. Natl. Acad. Sci. USA 83:9388-9392 (1986)) was transfected with the plasmids that received the respective coding sequences of the NHE subtypes. […]
In this test, the recovery of the intracellular pH (pHi) after an acidification, which in the case of functional NHE occurs even under bicarbonate-free conditions, was determined. For this, the pHi was determined using the pH-sensitive fluorescent dye BCECF (Calbiochem, where the precursor BCECF-AM is employed). […] The BCECF fluorescence was determined in a “Ratio Fluorescence Spectrometer” (Photon Technology International, South Brunswick, N.J., USA) at excitation wavelengths of 505 and 440 nm and an emission wavelength of 535 nm and converted into the pHi by means of calibration curves. […]

NHE3 = NHE3 inhibitor; cited from earlier work

T1 sequence (P26433 29-831): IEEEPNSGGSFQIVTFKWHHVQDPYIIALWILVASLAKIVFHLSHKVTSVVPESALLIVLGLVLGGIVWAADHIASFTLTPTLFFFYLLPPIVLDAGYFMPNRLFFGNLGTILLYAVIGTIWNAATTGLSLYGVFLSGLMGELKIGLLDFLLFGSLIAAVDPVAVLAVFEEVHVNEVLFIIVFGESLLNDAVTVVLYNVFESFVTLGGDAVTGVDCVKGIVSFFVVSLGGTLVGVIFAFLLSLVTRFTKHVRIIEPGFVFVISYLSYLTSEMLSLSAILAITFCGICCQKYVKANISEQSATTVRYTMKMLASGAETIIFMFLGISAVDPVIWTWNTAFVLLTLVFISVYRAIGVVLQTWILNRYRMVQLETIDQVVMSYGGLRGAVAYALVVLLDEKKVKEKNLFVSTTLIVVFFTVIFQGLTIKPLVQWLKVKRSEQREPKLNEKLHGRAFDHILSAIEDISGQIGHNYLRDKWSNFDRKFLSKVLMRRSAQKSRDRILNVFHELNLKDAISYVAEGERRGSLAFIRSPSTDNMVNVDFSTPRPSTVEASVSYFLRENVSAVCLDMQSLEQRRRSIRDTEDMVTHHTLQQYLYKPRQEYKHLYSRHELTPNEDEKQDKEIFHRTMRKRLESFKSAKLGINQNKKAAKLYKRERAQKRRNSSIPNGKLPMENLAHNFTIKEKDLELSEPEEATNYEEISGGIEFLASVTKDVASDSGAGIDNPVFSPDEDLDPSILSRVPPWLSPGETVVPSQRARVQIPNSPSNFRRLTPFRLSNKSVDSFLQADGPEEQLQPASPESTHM

Structure (SMILES) | Absorbed fraction (Caco-2 cell line) [%] | IC50 (Rat NHE3) [nM] | also measured
c1cncc(CN[C@@H]2C[C@@H]3C[C@H]2[C@@H]2CCC[C@H]32)c1 (racemic) [Example 1, (rac)-exo/endo-(octahydro-4,7-methanoinden-5-yl)pyridin-3-ylmethylamine Hydrochloride] | 100 | 340 | 
C/C(=C\c1cc(C)ccc1/C=C(\C)C(=O)NC(=N)N)C(=O)N=C(N)N [S 3226, reference compound] | <5 |  | 
c1cncc(CN[C@@H]2C[C@@H]3C[C@H]2[C@H]2CCC[C@@H]32)c1 (relative stereo) [Example 6, exo/exo-(octahydro-4,7-methanoinden-5-yl)-pyridin-3-ylmethylamine Hydrochloride] |  | 2100 | 
C/C(=C\c1cccc(/C=C(\C)C(=O)N=C(N)N)c1)C(=O)N=C(N)N.Cl.Cl [S 2120, reference compound] | <1 |  | 
c1cnc(CN[C@@H]2C[C@@H]3C[C@H]2[C@@H]2CCC[C@H]32)cn1 (racemic) [Example 18] | 100 |  | 
c1cncc(CN[C@@H]2C[C@@H]3C[C@H]2[C@@H]2CCCC[C@H]32)c1 (as salt: hydrochloride) [Example 8, exo/endo-(decahydro-1,4-methanonaphthalen-2-yl)-pyridin-3-ylmethyl-amine Hydrochloride] |  |  | melting point: 283 to 285 °C
CC(C)[C@@H](CC[C@@H](C)[C@H]1CC[C@H]2[C@@H]3[C@H](O)C[C@H]4C[C@@H](NCCCNCCCCN)CC[C@]4(C)[C@H]3CC[C@]12C)OS(=O)(=O)O [squalamine] |  |  | time to reach maximum potency (NHE3): only after approximately one hour
c1csc(CN[C@@H]2C[C@@H]3C[C@H]2[C@@H]2CCC[C@H]32)c1 [Example 5, exo/endo-(octahydro-4,7-methanoinden-5-yl)-thiophen-2-ylmethylamine Hydrochloride] |  | 2900 | 
